These results are taken from article PMC11345829, “Discovery of Potent Isoquinolinequinone N-Oxides to Overcome Cancer Multidrug Resistance” (Journal of Medicinal Chemistry, 2024).

In general, GI50 refers to the concentration giving 50% growth inhibition.

The subject of data set [1] is NCI60 tumor cell line panel. The arrangement: method as in PMID 31894828. The conditions noted are these: against 53 human tumor cell lines; cited from earlier work.
The next data set deals with MRC-5. As to the kind of experiment: SRB cytotoxicity assay, nontumorigenic lung fibroblasts. The class given is cell-based, human. The note with it: 48 h. The protocol:
Selectivity over nontumorigenic cells is a key requirement in cancer therapy so the cytotoxicity of 25 against nontumorigenic lung fibroblast (MRC-5) and breast cell lines (MCF12A) was evaluated with the SRB assay.
Figure 5 Cytotoxic effect of compound 25 on the nontumorigenic MRC-5 cell line (fibroblasts isolated from the lung tissue), analyzed by the SRB assay. Concentration−response curves of MRC-5 cells exposed to compound 25 for 48 h. Results are presented as percentage (%) of cell growth compared to control cells (vehicle, DMSO). For comparison purposes, the GI50 concentration of compound 25 in the NCI-H460 cell line is represented by the vertical dotted line. Results are the mean ± SEM from at least three independent experiments.
Cells were seeded at a previously determined optimal cell concentration (5.0 × 10^4 cells/mL for NSCLC cells and the nontumorigenic MRC-5 cell line and 1.0 × 10^5 cells/mL for colorectal cancer cells) and incubated at 37 °C for 24 h. […] The SRB assay was performed as previously described.[78],[79] […] Absorbance was measured at 510 nm in a multiplate reader (Synergy Mx, Biotek Instruments Inc., Winooski, Vermont, USA) using the Gen5 software (Biotek Instruments Inc.).

For another data set, the system named is NSCLC cell line panel. Kind of data set: NCI60 five-dose GI50, NSCLC cell line panel. The class given is cell-based. The conditions noted are these: Homo sapiens, read-out: GI50 range NSCLC cell line panel. The source says:
The concentration−response curve generated enables the determination of three criteria, GI50 (drug concentration at which 50% of cell growth is inhibited), total growth inhibition (TGI) and LC50 (drug concentration at which 50% of tumor cells are killed) which can be used to compare effectiveness against any compound tested in the screen since its inception.
S2.1 NCI Screening Assay Experimental details
NCI Screening Assay Experimental: Cancer cell growth assays (NCI60 screening) 5,6 One-dose study: Tested compounds were initially solubilised in DMSO, diluted into RPMI 1640 and 5% fetal bovine serum/L-glutamine, and added to 96-well plates containing cell lines previously cultured for 24 h. […] The dye was then resolubilised in Tris buffer, and the colorimetric absorbance was measured (515 nm). Growth inhibition was measured relative to the response generated from proliferating cells cultured under identical conditions for 48 h. […]
Five-dose study: Serial 5 × 10-fold dilution from an initial DMSO stock solution was performed, prior to incubation at each individual concentration (10 nM, 100 nM, 1 μM, 10 μM and 100 μM). Using seven absorbance measurements (time zero (Tz), control growth (C), and test growth in the presence of drug at the five concentration levels (Ti)), the percentage growth was calculated at each of the drug concentrations levels. […]

The subject of a further data set is NCI-H460/R spheroids. Kind of data set: Cell Titer-Glo 3D spheroid viability assay. The class given is cell-based, human. The note with it: 48 h; 25 at 0.35 and 0.7 μM; etoposide 2 μM. A general note: In ATP-based viability assays light output follows the ATP content of the culture.
Data set [2] has as its system NCI-H460, NCI-H460/R, DLD1 and DLD1-TxR spheroids. Kind of data set: Spheroid morphology (AnaSP image analysis). The class given is cell-based, human. The conditions noted are these: 48 h; GI50 and 2 × GI50. The method, then: Spheroid formation was conducted in 12-series agarose 3D Petri Dish micromolds (MicroTissues Technology, MicroTissues Inc., Sigma-Aldrich). The agarose micromolds were prepared using 1% agarose in a 0.9% NaCl solution and then placed in 12-well plates and equilibrated with RPMI supplemented with 10% FBS for at least 2 h before cell seeding. Cell suspensions corresponding to 500 cells per spheroid of the NSCLC cell lines (NCI-H460 and NCI-H460/R), and 1000 cells per spheroid of the colorectal cancer cell lines (DLD1 and DLD1-TxR) were seeded in the corresponding micromolds. The choice of cell seeding concentration was based on a previous optimization assay (data not shown), ensuring that at the end of the assay the spheroids would have a size of around 400 μm. A 20 min incubation period was used for cells to settle into the micromolds and additional medium was finally added to the wells. Spheroid formation was monitored with the Leica DMi1 microscope. […] At the end of the treatment, images from at least 8 different spheroids per condition were captured on the Leica Dmi1 microscope, and posteriorly analyzed with the automated open-source software AnaSP.[82] Spheroid parameters, such as equivalent diameter, circularity, and compactness, were calculated.
S3.6 Effect of 25 on spheroids from NSCLC and colorectal cancer (Figure S67) […]
2GI50 concentrations previously determined in a 2D setting. […]

Protocol for NCI-H460/R spheroids: Results are presented as the % of luciferase luminescence relative to the “blank” cells (medium).
Spheroid formation was conducted in 12-series agarose 3D Petri Dish micromolds (MicroTissues Technology, MicroTissues Inc., Sigma-Aldrich). The agarose micromolds were prepared using 1% agarose in a 0.9% NaCl solution and then placed in 12-well plates and equilibrated with RPMI supplemented with 10% FBS for at least 2 h before cell seeding. Cell suspensions corresponding to 500 cells per spheroid of the NSCLC cell lines (NCI-H460 and NCI-H460/R), and 1000 cells per spheroid of the colorectal cancer cell lines (DLD1 and DLD1-TxR) were seeded in the corresponding micromolds. […] Spheroid formation was monitored with the Leica DMi1 microscope. […] At the end of the treatment, images from at least 8 different spheroids per condition were captured on the Leica Dmi1 microscope, and posteriorly analyzed with the automated open-source software AnaSP.[82] Spheroid parameters, such as equivalent diameter, circularity, and compactness, were calculated.
Spheroid viability was determined through the luminescence-based Cell Titer-Glo 3D cell viability assay (Promega). […] The plate was then incubated in the dark for 5 min with agitation and allowed to rest for 25 min before luminescence measurement. Luminescence was quantified using the microplate reader Synergy MX coupled with the GEN5 software. […]

Regarding `COC(=O)c1c2c(c(C)[n+]([O-])c1C)C(=O)C=C(NCc1ccccc1)C2=O` [Compound 2], in data set [1], the 50% growth inhibitory concentration (GI50) is 910 nM.

As for `COC(=O)c1c2c(c[n+]([O-])c1C)C(=O)C=C(NCc1ccccc1)C2=O` [Compound 25], the 50% growth inhibitory concentration (GI50) in the data set with MRC-5 (Homo sapiens, MRC5, SRB, nontumorigenic lung fibroblasts, ±0.075 SEM) is 1530 nM; in the data set on NSCLC cell line panel it was 174 to 397 nM. Besides, the “effect on MRC-5 growth at low concentrations” value in the data set on MRC-5 (below 0.5 μM) is “does not reduce the growth of this cell line”. Moreover, in the data set with NCI-H460/R spheroids, the “viability of NCI-H460/R spheroids” value is reported as “significant decrease in the viability of the spheroids”. Moreover, the “spheroid morphological properties (diameter, compactness, circularity)” value in data set [2] is listed as “did not display statistical differences in the AnaSP-calculated morphological properties”.
